Values quoted from earlier work as cited in US10292957B2, “Compositions and methods for treating fibromyalgia” (Quality IP Holdings, LLC, priority 2012, dated 2019).

Key:
hGH secretion = details: for Effect on hGH: other amino acids, literature
[1] = system: fibromyalgia patients with low IGF-1 levels
[2] = system: patients with severe fibromyalgia and low insulin-like growth factor 1 levels
[3] = after subcutaneous injection of 0.06 IU, hGH deficient subjects
HGH-deficient adults = details: within months of hGH treatment
[4] = system: women with fibromyalgia and low IGF-1 levels
[5] = system: patients with fibromyalgia; details: 4 days treatment

Compound: N=C(N)NCCC[C@H](N)C(=O)O [arginine]
- Elevation of serum hGH levels (hGH secretion; 30 g, males): 8.6 fold
- Increase of hGH levels (hGH secretion; intravenous infusion of 183 mg/kg body weight, females): > 20 fold

Compound: N[C@@H](Cc1c[nH]cn1)C(=O)O [histidine]
- Effect on hGH (hGH secretion): marked increases

Compound: NCCCC[C@H](N)C(=O)O [lysine]
- Effect on hGH (hGH secretion): marked increases

Compound: CSCC[C@H](N)C(=O)O [methionine]
- Effect on hGH (hGH secretion): marked increases

Compound: NCCC[C@H](N)C(=O)O [ornithine]
- Effect on hGH (hGH secretion): marked increases

Compound: N[C@@H](Cc1ccccc1)C(=O)O [phenylalanine]
- Effect on hGH (hGH secretion): marked increases

Compound: hGH: human growth hormone, injectable
- Tolerability of concomitant administration with standard therapy ([1]; no patients discontinued due to adverse events): well tolerated
- Reduction in the mean number of tender points (pairs) compared to the control group ([1]; subcutaneous, added to standard therapy, one year, end of study): 60%
- Pain ([2]; addition to the standard treatment, sustained action over time): effective in reducing pain
- FIQ scores compared with placebo group ([2]; low-dose add-on to standard treatment, 120 patients): significantly improved
- Mean levels of hGH reached [3]: 0.4 ng/mL
- Lean body mass, skin thickness and muscle mass (HGH-deficient adults): gains
- FIQ score and tender point score over the placebo group ([4]; at nine months): significant improvement
- IGF-1 levels ([4]; daily subcutaneous injections): prompt and sustained increase
- Plasma IGF-1 levels [5]: increase
- Plasma IGF-BP3 levels [5]: increase
